Tests used:
Format in all cases: in vivo, spontaneously hypertensive rat (SHR)
[1] = test system: common carotid artery (CCA); assay: Magnetic Resonance Angiography (MRA) examination of the CCAs; details: Example 3: intermittent 4.5 mW/cm2 LED
Procedure: Serial in vivo MRA examination was performed on the CCAs of Example 3 and Comparative Example 2, and the typical MR imaging (MRI) experimental scheme of the time sequence is shown in FIG. 9. Images were acquired using a 7T MRI system (ClinScan 70/30 USR) (Bruker, Rheinstetten, Germany) with a linear body coil. The rat was anaesthetized with 1.5% isoflurane and connected to a respiratory rate monitor. The flow of anesthetic gas was constantly regulated to maintain the breathing rate at approximately 40/min. MRA of the CCAs was performed using the time-of-flight (TOF) method without a contrast agent. Transverse slices (panels (a) to (d) of FIG. 9) were acquired with a fast, low-angle shot (FLASH) using the following parameters: TR=22 ms, TE=4.87 ms, pulse angle=90 degrees, field of view (FQV)=55×42 mm2, and matrix size=58×256. T2-weighted images (panels (e) to (f) of FIG. 9) were acquired using a turbo spin-echo sequence and using the following parameters: TR=2900 ms, TE=37 ms, turbo factor=7, FOV=45×45 mm2, slice thickness=1 mm, and matrix size=240×320. The imaged area covered the CCAs, the carotid bifurcation, the internal carotid artery, and the external carotid artery. Contiguous cross-sectional images were obtained perpendicular to the long axis of the neck. Thrombus formation in the CCAs of Example 3 and Comparative Example 2 was observed by MRA and coronal sequential MR images. […] Because the blood flow of the CCA of Example 3 was disrupted by thrombus, MRA of the CCA of Example 3 was not as bright as the MRA of the CCA of Comparative Example 2 (panel (b) of FIG. 9).

[2] = test system: common carotid artery (CCA); assay: Histological (H&E) and immunohistochemical (PECAM-1) staining of the CCAs; details: for thrombus formation, histologic examination (H&E): 3 days
Procedure: The animal of Example 3 and Comparative Example 2 was anesthetized and sacrificed. Both CCAs of Example 3 and Comparative Example 2 were removed and washed in phosphate buffer solution, dehydrated on dry ice, and stored at −80° C. for 24 hours. Before sectioning, all CCAs were embedded in Optimal Cutting Temperature Compound (Tissue Tek, 4583) (Sakura Finetek USA, Inc., Torrance, Calif., USA) and stored at −80° C. for another 12 hours. Cross-sections of the CCAs of Example 3 and Comparative Example 2 (10 μm in thickness) were consecutively cut on a microtome-cryostat. Then, these sections were subjected to hematoxylin and eosin (H&E) staining for evaluation of thrombus formation. For immunohistochemical staining, the slides were treated with cold acetone for 10 minutes and then with methanol with 0.3% H2O2 for 10 minutes. After blocking endogenous peroxidase using a peroxidase blocking reagent (DAKO, Carpinteria, Calif., USA), the primary antibody (anti-PECAM-1 [anti-CD31]) (AbD Serotec, Dusseldorf, Germany) was applied at a dilution of 1:500 overnight at 4° C., followed by a universal immuno-peroxidase polymer (Histofine) (Cosmo Bio, Carlsbad, Calif., USA) for 1 hour at room temperature. Development of color was achieved by exposure for 2 minutes to the DAB chromogen system (DAKO). Endothelium cells were considered positive for PECAM-1 in the presence of intense brown staining.

[3] = test system: common carotid artery (CCA); assay: LED photochemical thrombosis induction in the common carotid artery, ultrasound imaging; details: for thrombosis formation in the CCA (ultrasound): no irradiation
From the text: A system for inducing thrombosis was provided, including an implantable medical device and an external power controller. The external power controller includes a Class-E amplifier and a resonant transmitting coil. The implantable medical device includes a resonant receiving coil (i.e., the wireless power receiver) and an LED assembly (i.e., the irradiation module) including a surface-mount device type LED (i.e., the light-emitting element) and a LED lens (i.e., the lens element) disposed on the LED. The LED assembly and the resonant receiving coil were hermetically packaged with polydimethylsiloxane (PDMS) (i.e., the encapsulator). An open ditch of approximately 2 mm in width and depth was made on the LED lens, and four cuts (i.e., the engaging groove) were formed on the PDMS. A male spontaneously hypertensive rat (SHR) (i.e., the living animal) was anesthetized with 3% isoflurane in a mixture of 30% oxygen and 70% nitrogen. After the administration of anesthesia, the rat was placed in a supine position. A 1 cm incision was made in the left inguinal area and the femoral vein was carefully dissected. A polyethylene tube to be used for rose bengal injection was inserted in the femoral vein via the dissected incision and secured using 3-0 nylon suture. […] Blunt dissection of the left common carotid artery (CCA) was performed. The CCA was placed into the ditch of the LED lens, and the implantable medical device was secured onto the CCA using 3-0 nylon suture (i.e., the securing strap) to engage the cuts on the PDMS. After the implantation procedure, the surgical wound was sutured and the rat was placed in a prone position near the transmitting coil of the external power controller. After isoflurane was decreased to 1%, rose bengal (Sigma-Aldrich, St. Louis, Mo., USA) was administrated intravenously at a dose of 60 mg/kg. Thereafter, the external power controller was powered to wirelessly drive the LED of the implantable medical device via the resonant receiving coil to irradiate the CCA at a wavelength of 540 nm. […] The LED light power was measured using a Nova handheld laser power meter (Ophir Optronics Solutions, Ltd., Israel). After irradiation, the implantable medical device was removed and the wound was sutured using 3-0 nylon. Ultrasound images of the CCA prior to irradiation (Pre OP), immediately after irradiation (Post OP), 3 days after irradiation (Post OP 3d), and 7 days after irradiation (Post OP 7d) were captured and are shown in FIG. 6.

[4] = Example 3: intermittent 4.5 mW/cm2 LED

O=C([O-])c1c(Cl)c(Cl)c(Cl)c(Cl)c1-c1c2cc(I)c(=O)c(I)c-2oc2c(I)c([O-])c(I)cc12.[Na+].[Na+] [rose bengal]
thrombus in the CCA (MRA / T2-weighted MRI) ([1]; immediately after irradiation): the thrombus appeared on the vessel wall
thrombus in the CCA (MRA / T2-weighted MRI) ([1]; seven days after irradiation): totally occluded
thrombus in the CCA (MRA / T2-weighted MRI) ([1]; three days after irradiation): enlarged and significantly disrupted blood flow
endothelial cells, PECAM-1 staining ([2]; Comparative Example 2: non-irradiated CCA of the same rat): intact
endothelial cells, PECAM-1 staining [2, 4]: injured and discontinued
thrombus formation, histologic examination (H&E) [2, 4]: formation of thrombus packed with red blood cells, leucocytes, and platelets
thrombus formation, histologic examination (H&E) ([2]; non-irradiated CCA of the same rat): no thrombus formation was observed
thrombosis formation in the CCA (ultrasound) ([3]; Comparative Example 1: 60 mg/kg i.v., up to 7 days): thrombosis did not form
thrombosis formation in the CCA (ultrasound) ([3]; Comparative Example 2: right CCA of the Example 3 rat, up to 7 days): thrombosis was not formed
thrombosis / occlusion of the CCA (ultrasound) ([3]; Comparative Example 5: intermittent LED 4.0 mW/cm2 (2 h, off 30 min, 2 h), up to 1 day): disappeared within one day after irradiation
thrombosis / occlusion of the CCA (ultrasound) ([3]; Comparative Example 6: intermittent LED 5.0 mW/cm2 (2 h, off 30 min, 2 h), up to 1 day): the artery became totally occluded one day after irradiation
thrombosis / occlusion of the CCA (ultrasound) ([3]; Example 1: 60 mg/kg i.v., LED 540 nm, 6 mW/cm2 continuously for 4 hours, up to 7 days): totally occluded right after irradiation and total occlusion was maintained for 7 days
thrombosis / occlusion of the CCA (ultrasound) ([3]; Example 2: 60 mg/kg i.v., LED 5 mW/cm2 continuously for 4 hours, up to 7 days): the formed thrombus gradually diminished 3 days after irradiation (Post OP 3d) and totally disappeared at 7 days after irradiation
thrombosis / occlusion of the CCA (ultrasound) ([3]; Example 3: 60 mg/kg i.v., LED 4.5 mW/cm2 2 hours, off 30 minutes, 2 hours, up to 7 days): the CCA was totally occluded at 7 days after irradiation

— patent US20160367831A1, “IMPLANTABLE MEDICAL DEVICE, SYSTEM AND METHOD FOR INDUCING THROMBOSIS IN AN ARTERY OF A LIVING ANIMAL” (Chang Gung Memorial Hospital, Linkou, priority 2015, published 2016)
